{"source": "ChEMBL document CHEMBL1121980", "about": "“beta-adrenergic blocking agents. 24. Heterocyclic substituted 1-(aryloxy)-3-[[(amido)alkyl]amino]propan-2-ols” (1982)", "format_in_all_cases": "functional", "key": {"[1]": {"species": "Felis catus", "experiment": "The compound was evaluated for inhibition of depressor response.", "design": "concentration or dose not given beside the values"}, "[2]": {"system": "Felis catus", "experiment": "In vivo beta adrenoceptor blocking potency was determined by inhibition of tachycardia in cat"}, "[3]": {"species": "Felis catus", "experiment": "The compound was evaluated for inhibition of depressor response"}}, "data": [{"smiles": "N#Cc1ccccc1OCC(O)CNCCNC(=O)Cc1cc2ccccc2[nH]1", "note": "(configuration not stated)", "values": [{"measurement": "Inhibition", "setting": "[1]", "value": 6, "unit": "%"}, {"measurement": "ED50", "setting": "[2]", "value": 0.049, "unit": "mg/kg"}]}, {"smiles": "N#Cc1ccccc1OCC(O)CNCCNC(=O)c1ccco1", "note": "(configuration not stated)", "values": [{"measurement": "Inhibition", "setting": "[1]", "value": 28, "unit": "%"}, {"measurement": "ED50", "setting": "[2]", "value": 0.272, "unit": "mg/kg"}]}, {"smiles": "O=C(NCCNCC(O)COc1cccc2c1OCCO2)c1cccs1", "note": "(configuration not stated)", "values": [{"measurement": "Inhibition", "setting": "[1]", "value": 40, "unit": "%"}]}, {"smiles": "N#Cc1ccccc1OCC(O)CNCCNC(=O)Cc1csc(-c2ccc(Cl)cc2)n1", "note": "(configuration not stated)", "values": [{"measurement": "Inhibition", "setting": "[1]", "value": 0, "unit": "%"}, {"measurement": "ED50", "setting": "[2]", "value": 0.087, "unit": "mg/kg"}]}, {"smiles": "O=C(NCCNCC(O)COc1cccc2c1OCCO2)Nc1ccccc1", "note": "(configuration not stated)", "values": [{"measurement": "Inhibition", "setting": "[1]", "value": 0, "unit": "%"}, {"measurement": "ED50", "setting": "[2]", "value": 0.111, "unit": "mg/kg"}]}, {"smiles": "NC(=O)c1ccccc1OCC(O)CNCCNC(=O)c1cccs1", "note": "(configuration not stated)", "values": [{"measurement": "Inhibition", "setting": "[1]", "value": 0, "unit": "%"}, {"measurement": "ED50", "setting": "[2]", "value": 0.461, "unit": "mg/kg"}]}, {"smiles": "O=C(NCCNCC(O)COc1ccccc1)c1cccs1", "note": "(configuration not stated)", "values": [{"measurement": "Inhibition", "setting": "[1]", "value": 28, "unit": "%"}, {"measurement": "ED50", "setting": "[2]", "value": 0.104, "unit": "mg/kg"}]}, {"smiles": "CC(=O)Nc1ccc(OCC(O)CNC(C)C)cc1", "note": "(configuration not stated) [PRACTOLOL]", "values": [{"measurement": "Inhibition", "setting": "[3]", "value": 8, "unit": "%"}, {"measurement": "ED50", "setting": "[2]", "value": 0.167, "unit": "mg/kg"}]}, {"smiles": "CC(C)NCC(O)COc1cccc2ccccc12", "note": "(configuration not stated) [PROPRANOLOL]", "values": [{"measurement": "Inhibition", "setting": "[1]", "value": 85, "unit": "%"}, {"measurement": "ED50", "setting": "[2]", "value": 0.062, "unit": "mg/kg"}]}]}
